This is an account of results in paper PMC9434700 (Journal of medicinal chemistry, 2022).

Molecules are shown by their SMILES.

This test has as its system mGluR2. The conditions noted are these: monkey thalamus, compound 2 0.5 mg/kg iv 10 min before tracer.

For `Cc1c(OCc2cccc(-c3ccc(C(=O)O)cc3)c2)cc2c(c1C)C(=O)C(C1CCCC1)C2` (stereo not shown) [Compound 2, Biphenyl-indanone A], the “enhancement of [18F]9 Logan VT after pretreatment” value is recorded as ~ 3.3%.
